The results in this text go back to patent publication US8158621B2, “Methods of treating or preventing autoimmune diseases with 2,4-pyrimidinediamine compounds” (Rigel Pharmaceuticals, Inc., priority 2002, dated 2012).

SMILES strings stand for the structures.

One assay has as its system Human Jurkat T-cells (clone N). Kind of assay: Jurkat T-cell activation (anti-TCR, CD69 upregulation). The class given is cell-based.
Conditions: not given
The method, boiled down: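 Readout is CD69 upregulation by flow cytometry (anti-CD69-APC, 20 min at 4 °C) after 20 h anti-TCR (C305, 500 ng/ml) stimulation at 37 °C.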
With `CNC(=O)COc1cccc(Nc2ncc(F)c(Nc3ccc(OC)c(C(F)(F)F)c3)n2)c1` [Compound R926835], the IC50 was determined as 3.58 µM.

In turn, `CCOC(=O)c1cnc(Nc2cccc(O)c2)nc1N[C@@H](Cc1ccccc1)C(=O)OCC` [Compound R926528] yielded an IC50 greater than 10 µM.

Regarding `N#Cc1cnc(Nc2ccc(OCC(=O)NCC(O)CO)cc2)nc1Nc1cccc(O)c1` (stereo not drawn) [Compound R925846], the IC50 was greater than 10 µM.

With `Oc1cccc(Nc2ncc(F)c(Nc3cccc(O)c3)n2)c1` [Compound R926461], inhibition was half-maximal at 3.39 µM (IC50).

Regarding `COC(=O)COc1cccc(Nc2ncc(F)c(Nc3ccc4c(c3)C(OC)CCO4)n2)c1` (stereo not drawn) [Compound R950295], the IC50 turned out to be 4.71 µM.

The compound `COc1cc(C(=O)NS(=O)(=O)c2ccccc2C)ccc1Cn1ncc2cc(Nc3ncc(F)c(Nc4cccc(O)c4)n3)ccc21` [Compound R935340] yielded an IC50 greater than 10 µM.

In turn, `COC(=O)c1cc2ccc(Nc3ncc(F)c(Nc4cccc(O)c4)n3)cc2[nH]1` [Compound R926903] displayed an IC50 greater than 10 µM.

In the case of `CNC(=O)COc1cc(Nc2ncc(F)c(Nc3cccc(O)c3)n2)ccc1OC` [Compound R926829], the IC50 turned out to be 3.1 µM.

Regarding `COC(=O)C(C)Oc1ccc(Nc2ccnc(Nc3ccc(OC(C)C(=O)OC)cc3)n2)cc1` (racemic) [Compound R926257], the IC50 is greater than 10 µM.

Compound `CC(=NO)c1cccc(Nc2ncc(F)c(Nc3cccc(C(C)=NO)c3)n2)c1` [Compound R950379] yielded an IC50 of 0.878 µM.

In turn, `Fc1cnc(Nc2ccc3c(c2)OCCO3)nc1Nc1ccc2[nH]ncc2c1` [Compound R935267] registered an IC50 of 3.93 µM.

As to `CCOC(=O)c1cnc(Nc2ccc(OCC(=O)OC)cc2)nc1Nc1ccc(OCC(=O)OC)cc1` [Compound R926253], the IC50 is greater than 10 µM.

As to `CNC(=O)Cn1ncc2ccc(Nc3nc(Nc4ccc(OC(C)C)cc4)ncc3F)cc21` [Compound R935224], the IC50 is greater than 10 µM.

In the case of `CNC(=O)COc1cc(O)cc(Nc2ncc(F)c(Nc3cccc(O)c3)n2)c1` [Compound R926929], the IC50 stood at 4 µM. That is a single-digit micromolar value.

`Fc1cnc(Nc2ccc3c(c2)OCCO3)nc1Nc1ccc(OCc2nc(-c3ccccc3)no2)cc1` [Compound R935140] yielded an IC50 of 2.16 µM.

`O=C(COc1ccc(Nc2ncc(F)c(Nc3ccc(OCC(=O)N4CCCC4)cc3)n2)cc1)N1CCCC1` [Compound R926563] showed an IC50 greater than 10 µM.

`N#Cc1cnc(Nc2cccc(O)c2)nc1Nc1ccc(OCC(=O)NCC2CC2)cc1` [Compound R925845]: the midpoint of inhibition, the IC50, lay at 6.97 µM. This counts as single-digit micromolar.

For the compound `COC(=O)Cn1ncc2ccc(Nc3ncc(F)c(Nc4cccc(O)c4)n3)cc21` [Compound R935215], it took 7.96 µM to reach half-maximal inhibition (IC50). The IC50 values of the last two compounds are within 1.5-fold of each other.

Turning to `CNC(=O)COc1cccc(Nc2ncc(F)c(Nc3ccc(OC)nc3)n2)c1` [Compound R926886], it took 1.14 µM to reach half-maximal inhibition (IC50).

For the compound `CNC(=O)c1cc(COc2cccc(Nc3ncc(F)c(Nc4ccc5c(c4)OCCO5)n3)c2)co1` [Compound R935213], the IC50 came out at 3.09 µM. This IC50 is about 2.7-fold higher than that of the compound before.

For `COCc1cc(=O)oc2cc(Nc3ncc(F)c(Nc4ccc5c(COC)cc(=O)oc5c4)n3)ccc12` [Compound R926620], the IC50 was greater than 10 µM.

`CCOC(=O)COc1cccc(Nc2nc(Nc3cc(OC)cc(OC)c3)ncc2F)c1` [Compound R926804]: the IC50 is greater than 10 µM.

Compound `CNC(=O)Cn1ncc2ccc(Nc3nc(Nc4ccc5c(c4)OCCO5)ncc3F)cc21` [Compound R935225] displayed an IC50 of 7.42 µM.

Turning to `Cn1nnc(COc2ccc(Nc3nc(Nc4ccc(OCc5nnnn5C)cc4)ncc3F)cc2)n1` [Compound R945047], the IC50 turned out to be 3.21 µM. Against the preceding compound, the IC50 is about 2.3-fold lower.

Take `CNC(=O)COc1cccc(Nc2ncc(F)c(Nc3ccc(F)c(C)c3)n2)c1` [Compound R926923]: the midpoint of inhibition, the IC50, lay at 7.2 µM.

In turn, `CNC(=O)COc1cccc(Nc2ncc(F)c(Nc3cc(C)ccc3Cl)n2)c1` [Compound R926840] gave an IC50 of 12.2 µM.

In the case of `CCOC(=O)CCn1ncc2ccc(Nc3ncc(F)c(Nc4ccc5c(c4)OCCO5)n3)cc21` [Compound R935286], the IC50 stood at 2.5 µM.

Compound `CCOc1ccc(Nc2nc(Nc3cccc(OCC(=O)NC)c3)ncc2F)cc1` [Compound R926827] gave an IC50 of 2.14 µM.

The compound `O=C(NC(CO)CO)c1cc2cc(Nc3ncc(F)c(Nc4ccc5c(c4)OCCO5)n3)ccc2o1` [Compound R926785] showed an IC50 of 2.58 µM. The IC50 values of the last two compounds are within 1.5-fold of each other.

`O=C(c1cc2cc(Nc3ncc(F)c(Nc4ccc5c(c4)OCCO5)n3)ccc2o1)N1CCNCC1` [Compound R926499] gave an IC50 of 0.56 µM.

In turn, `Fc1cnc(Nc2ccc3cn[nH]c3c2)nc1Nc1ccc(OC(F)(F)F)c(Cl)c1` [Compound R935368] displayed an IC50 greater than 10 µM.

Take `CNC(=O)COc1cccc(Nc2ncc(F)c(Nc3ccc(OC)c(CO)c3)n2)c1` [Compound R950386]: it took 11.4 µM to reach half-maximal inhibition (IC50).

For the compound `NCCNC(=O)c1cc2cc(Nc3ncc(F)c(Nc4ccc5oc(C(=O)NCCN)cc5c4)n3)ccc2o1` [Compound R950168], the IC50 is 10.7 µM.

Staying with this assay, now noted: Homo sapiens.
`Nc1cc(Nc2ncc(F)c(Nc3ccc([N+](=O)[O-])c(N)c3)n2)ccc1[N+](=O)[O-]` [Compound R950135]: the IC50 is greater than 10 µM.

The same assay, now with this note: Homo sapiens, Jurkat.
`Oc1cccc(Nc2nc(Nc3ccc4c(c3)CCO4)ncc2F)c1` [Compound R909250] came in with an IC50 greater than 10 µM.

`Fc1cnc(Nc2cccnc2)nc1Nc1ccc2c(c1)OCCO2` [Compound R920668] had an IC50 greater than 10 µM.

The compound `CC(C)c1cccc(Nc2ncc(F)c(Nc3cccc(C(C)C)c3)n2)c1` [Compound R940297] registered an IC50 greater than 10 µM.

`CN1C(=O)COc2ccc(Nc3nc(Nc4cccc(O)c4)ncc3F)cc21` [Compound R908709]: the IC50 was 3.39 µM.

Compound `Oc1cccc(Nc2ncc(F)c(Nc3ccc4[nH]ccc4c3)n2)c1` [Compound R926932] showed an IC50 of 2.91 µM.

Consider `COC(=O)C1Cc2cc(N(c3ccc(C(C)(C)C)cc3)c3ncc(F)c(N)n3)ccc2O1` (stereo not drawn) [Compound R926719], for which the IC50 is greater than 10 µM.

`Oc1cccc(Nc2nc(NCCN3CCN(Cc4ccccc4)CC3)ncc2F)c1` [Compound R940261] showed an IC50 of 10.9 µM.

In the case of `Oc1cccc(Nc2nc(Nc3ccc(-n4cnc(Cl)c4Cl)cc3)ncc2F)c1` [Compound R926777], the IC50 is greater than 10 µM.

For `Cc1cc(Nc2ncc(F)c(Nc3ccc4c(c3)OCCO4)n2)cc(C(F)(F)F)c1` [Compound R926895], the IC50 was greater than 10 µM.

`CCOC(=O)C1CCN(C(=O)c2cccc(Nc3nc(Nc4cccc(O)c4)ncc3F)c2)CC1` [Compound R926940] yielded an IC50 greater than 10 µM.

For `Oc1ccc(CCNc2ccnc(NCCc3ccc(O)cc3)n2)cc1` [Compound R925790], half-maximal inhibition (IC50) was put at 17 µM. This counts as double-digit micromolar.

`OCc1cccc(Nc2nc(Nc3ccc4c(c3)OCCO4)ncc2F)c1` [Compound R925758]: 18.2 µM corresponded to half-maximal inhibition (IC50). The IC50 values of the last two compounds are within 1.5-fold of each other.

With `CCc1ccc(Nc2ncc(F)c(Nc3ccc(CC)cc3)n2)cc1` [Compound R926234], the IC50 was greater than 10 µM.

For `Oc1cccc(Nc2ncc(C(F)(F)F)c(Nc3cccc(O)c3)n2)c1` [Compound R925863], it took 2.96 µM to reach half-maximal inhibition (IC50).

The compound `Cc1cc(CNc2nc(Nc3cccc(O)c3)ncc2F)c(C)o1` [Compound R945151] registered an IC50 greater than 10 µM.

Take `COc1ccc(Nc2ncc(Br)c(Nc3ccc(OC)c(-c4ccccc4)c3)n2)cc1-c1ccccc1` [Compound R925802]: the IC50 was greater than 10 µM.

With `Cc1cc(Nc2ncc(F)c(Nc3cccc(C(C)(C)C)c3)n2)cc(Cl)c1O` [Compound R940271], the IC50 was greater than 10 µM.

A word on the IC50: it is the midpoint of a concentration-inhibition curve.
